In US10590113B2, “6-hydroxy-4-oxo-1,4-dihydropyrimidine-5-carboxamides as APJ agonists” (priority 2016, dated 2020) one finds EC50 data, which are given here for 24 compounds.

In one experiment the target is T1, human APJ receptor (Homo sapiens, UniProt P35414).
T1 construct: expressed in transfected cells; host or cells: HEK293
T1 sequence (P35414 1-380): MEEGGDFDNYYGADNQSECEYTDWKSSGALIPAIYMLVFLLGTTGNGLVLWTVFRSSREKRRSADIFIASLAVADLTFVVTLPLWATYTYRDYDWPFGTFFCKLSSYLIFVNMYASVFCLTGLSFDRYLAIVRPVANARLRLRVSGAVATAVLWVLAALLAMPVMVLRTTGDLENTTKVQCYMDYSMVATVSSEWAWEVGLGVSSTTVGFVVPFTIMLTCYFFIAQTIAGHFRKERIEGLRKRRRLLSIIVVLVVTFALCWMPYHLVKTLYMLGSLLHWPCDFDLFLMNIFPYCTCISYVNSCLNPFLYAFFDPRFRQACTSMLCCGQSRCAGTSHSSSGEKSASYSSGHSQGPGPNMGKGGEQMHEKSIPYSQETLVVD
Nature of the experiment: Intracellular cAMP Accumulation Assay (APJ hcAMP, HTRF). The class given is cell-based. Particulars: human APJ, cAMP accumulation; potency range class; read-out: hAPJ cAMP EC50 Potency range. Summed up: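 Stably transfected HEK293 cells (5,000/well) incubated 30 min at room temperature with serially diluted compound, […] and 2 μM forskolin. cAMP measured by HTRF after 60 min with detection reagents, quantified against a cAMP standard curve; EC50 from variable-slope sigmoidal fit of inhibition of forskolin-stimulated cAMP.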
In general terms: Time-resolved FRET reads energy transfer from a long-lived donor to a nearby acceptor.
On to `CC[C@@H](c1ccccc1)n1c(-c2ccc(F)c(C)c2)nc(=O)c(C(=O)N2CC[C@H](c3ccccc3)C2)c1O` [Example 314, 2-(4-fluoro-3-methylphenyl)-6-hydroxy-1-[(1S)-1-phenylpropyl]-5-[(3R)-3-phenylpyrrolidine-1-carbonyl]-1,4-dihydropyrimidin-4-one], for which the EC50 – broadly, the concentration needed to bring the measured effect to its halfway point – is 0.01 to 10 nM. Regarding `CCc1cccc(CC)c1-n1c(-c2ccn(C3CC3)n2)nc(=O)c(C(=O)N2CC[C@@H](c3ccccc3)C2)c1O` [Example 316, 2-(1-cyclopropyl-1H-pyrazol-3-yl)-1-(2,6-diethylphenyl)-6-hydroxy-5-[(3S)-3-phenylpyrrolidine-1-carbonyl]-1,4-dihydropyrimidin-4-one], the EC50 was 0.01 to 10 nM. Take `CCc1cccc(CC)c1-n1c(-c2ccn(CC(C)C)n2)nc(=O)c(C(=O)N2CC[C@@H](c3ccccc3)C2)c1O` [Example 317, 1-(2,6-diethylphenyl)-6-hydroxy-2-[1-(2-methylpropyl)-1H-pyrazol-3-yl]-5-[(3S)-3-phenylpyrrolidine-1-carbonyl]-1,4-dihydropyrimidin-4-one]: the EC50 was 10 to 100 nM.

As for `CCCc1nc(O)c(C(=O)N2CC[C@H](c3ccccc3)C2)c(=O)n1[C@@H](COC)c1ccccc1` [Example 329, 6-hydroxy-3-[(1R)-2-methoxy-1-phenylethyl]-5-[(3R)-3-phenylpyrrolidine-1-carbonyl]-2-propyl-3,4-dihydropyrimidin-4-one], the EC50 lay in the range of 10 to 100 nM. On the same count and under the same terms, to `CCCc1nc(=O)c(C(=O)N2CC[C@@H](c3ccccc3)C2)c(O)n1[C@@H](COC)c1ccccc1` [Example 330, 6-hydroxy-3-[(1R)-2-methoxy-1-phenylethyl]-5-[(3S)-3-phenylpyrrolidine-l-carbonyl]-2-propyl-3,4-dihydropyrimidin-4-one] belongs 10 to 100 nM. As for `CCCCc1nc(=O)c(C(=O)N2CCC(c3ncc(F)cc3F)C2)c(O)n1[C@@H](COC)c1ccccc1` (stereo partly drawn) [Example 349, 2-butyl-5-[3-(3,5-difluoropyridin-2-yl)pyrrolidine-1-carbonyl]-6-hydroxy-3-[(1R)-2-methoxy-1-phenylethyl]-3,4-dihydropyrimidin-4-one], the EC50 lay within 0.01 to 10 nM. For the compound `CCCCc1nc(=O)c(C(=O)N2CCC(c3ncc(Cl)cc3F)C2)c(O)n1[C@@H](COC)c1ccccc1` (stereo partly drawn) [Example 350, 2-butyl-5-[3-(5-chloro-3-fluoropyridin-2-yl)pyrrolidine-1-carbonyl]-6-hydroxy-3-[(1R)-2-methoxy-1-phenylethyl]-3,4-dihydropyrimidin-4-one], the EC50 lay in the range of 0.01 to 10 nM. Still for that read-out and setting: to `CCCCc1nc(=O)c(C(=O)N2CCC(c3ncc(F)cc3F)C2)c(O)n1[C@H](c1cccc(C#N)c1)C1CC1` (stereo partly drawn) [Example 351, 3-[(S)-{2-butyl-5-[3-(3,5-difluoropyridin-2-yl)pyrrolidine-1-carbonyl]-4-hydroxy-6-oxo-1,6-dihydropyrimidin-1-yl}(cyclopropyl)methyl]benzonitrile] belongs 0.01 to 10 nM; to `CCCCc1nc(=O)c(C(=O)N2CCN(Cc3cccc(Cl)c3Cl)CC2)c(O)n1-c1c(OC)cccc1OC` [Example 355, 2-butyl-5-(4-(2,3-dichlorobenzyl)piperazine-1-carbonyl)-1-(2,6-dimethoxyphenyl)-6-hydroxypyrimidin-4(1H)-one0.011], 0.01 to 10 nM.

Staying with this experiment, now noted: read-out: hAPJ cAMP EC50 Potency range.
`CCCCc1nc(=O)c(C(=O)N2CCC(Oc3ccc(Cl)cc3)CC2)c(O)n1-c1c(OC)cccc1OC` [Example 373, 2-butyl-5-(4-(4-chlorophenoxy)piperidine-1-carbonyl)-1-(2,6-dimethoxyphenyl)-6-hydroxypyrimidin-4(1H)-one]: the EC50 lay in the range of 0.01 to 10 nM.

As to `CCOCc1nc(=O)c(C(=O)N2CCC(Cc3ccc(F)cc3)CC2)c(O)n1-c1c(OC)cccc1OC` [Example 374, 1-(2,6-dimethoxyphenyl)-2-(ethoxymethyl)-5-(4-(4-fluorobenzyl)piperidine-1-carbonyl)-6-hydroxypyrimidin-4(1H)-one], the EC50 lay within 0.01 to 10 nM. Consider `CCOCc1nc(=O)c(C(=O)N2CCC(Cc3ccc(Cl)cc3)CC2)c(O)n1-c1c(OC)cccc1OC` [Example 375, 5-(4-(4-chlorobenzyl)piperidine-1-carbonyl)-1-(2,6-dimethoxyphenyl)-2-(ethoxymethyl)-6-hydroxypyrimidin-4(1H)-one], for which the EC50 lay within 0.01 to 10 nM. For `CCOCc1nc(=O)c(C(=O)N2CC[C@H](OCc3ccccc3)C2)c(O)n1-c1c(OC)cccc1OC` [Example 376, (S)-5-(3-(benzyloxy)pyrrolidine-1-carbonyl)-1-(2,6-dimethoxyphenyl)-2-(ethoxymethyl)-6-hydroxypyrimidin-4(1H)-one], the EC50 was in the range of 0.01 to 10 nM.

As to `CCOCc1nc(=O)c(C(=O)N2CCC(Oc3ccc(Cl)cc3)CC2)c(O)n1-c1c(OC)cccc1OC` [Example 377, 5-(4-(4-chlorophenoxy)piperidine-1-carbonyl)-1-(2,6-dimethoxyphenyl)-2-(ethoxymethyl)-6-hydroxypyrimidin-4(1H)-one], the EC50 fell in the range of 0.01 to 10 nM. For `CCOCc1nc(=O)c(C(=O)N2CCC(Oc3cc(F)ccc3Cl)CC2)c(O)n1-c1c(OC)cccc1OC` [Example 378, 5-(4-(2-chloro-5-fluorophenoxy)piperidine-1-carbonyl)-1-(2,6-dimethoxyphenyl)-2-(ethoxymethyl)-6-hydroxypyrimidin-4(1H)-one], the EC50 is 0.01 to 10 nM.

Turning to `CCOCc1nc(=O)c(C(=O)N2CCC(c3ccccc3F)CC2)c(O)n1-c1c(OC)cccc1OC` [Example 379, 1-(2,6-dimethoxyphenyl)-2-(ethoxymethyl)-5-(4-(2-fluorophenyl)piperidine-1-carbonyl)-6-hydroxypyrimidin-4(1H)-one], the EC50 was in the range of 0.01 to 10 nM. Still for that read-out and setting: the result for `CCCCc1nc(=O)c(C(=O)N2CCC(Cc3ccc(C(F)(F)F)cc3)CC2)c(O)n1-c1c(OC)cccc1OC` [Example 380, 2-butyl-1-(2,6-dimethoxyphenyl)-6-hydroxy-5-(4-(4-(trifluoromethyl)benzyl)piperidine-1-carbonyl)pyrimidin-4(1H)-one] reads 0.01 to 10 nM; that for `CCCCc1nc(=O)c(C(=O)N2CCC(Oc3ccc(C(C)(C)C)cc3)CC2)c(O)n1-c1c(OC)cccc1OC` [Example 381, 2-butyl-5-(4-(4-(tert-butyl)phenoxy)piperidine-1-carbonyl)-1-(2,6-dimethoxyphenyl)-6-hydroxypyrimidin-4(1H)-one], 10 to 100 nM; that for `CCCCc1nc(=O)c(C(=O)N2CCC(Oc3ccccc3Cl)CC2)c(O)n1-c1c(OC)cccc1OC` [Example 382, 2-butyl-5-(4-(2-chlorophenoxy)piperidine-1-carbonyl)-1-(2,6-dimethoxyphenyl)-6-hydroxypyrimidin-4(1H)-one], 0.01 to 10 nM. With `CCCCc1nc(=O)c(C(=O)N2CCC(Oc3cccc(F)c3Cl)CC2)c(O)n1-c1c(OC)cccc1OC` [Example 383, 2-butyl-5-(4-(2-chloro-3-fluorophenoxy)piperidine-1-carbonyl)-1-(2,6-dimethoxyphenyl)-6-hydroxypyrimidin-4(1H)-one], the EC50 lay in the range of 0.01 to 10 nM. For `CCCCc1nc(=O)c(C(=O)N2CCC(Oc3cc(F)ccc3Cl)CC2)c(O)n1-c1c(OC)cccc1OC` [Example 385, 2-butyl-5-(4-(2-chloro-5-fluorophenoxy)piperidine-1-carbonyl)-1-(2,6-dimethoxyphenyl)-6-hydroxypyrimidin-4(1H)-one], the concentration giving a half-maximal response (EC50) was in the range of 0.01 to 10 nM. Consider `CCCCc1nc(=O)c(C(=O)N2CCC(Oc3cc(F)cc(F)c3Cl)CC2)c(O)n1-c1c(OC)cccc1OC` [Example 386, 2-butyl-5-(4-(2-chloro-3,5-difluorophenoxy)piperidine-1-carbonyl)-1-(2,6-dimethoxyphenyl)-6-hydroxypyrimidin-4(1H)-one], for which the EC50 is 0.01 to 10 nM. Still for that read-out and setting: the result for `CCCCc1nc(=O)c(C(=O)N2CCC(Oc3cccc(F)c3F)CC2)c(O)n1-c1c(OC)cccc1OC` [Example 387, 2-butyl-5-(4-(2,3-difluorophenoxy)piperidine-1-carbonyl)-1-(2,6-dimethoxyphenyl)-6-hydroxypyrimidin-4(1H)-one] reads 0.01 to 10 nM; that for `CCCCc1nc(=O)c(C(=O)N2CCN(Cc3cccc(F)c3F)CC2)c(O)n1-c1c(OC)cccc1OC` [Example 388, 2-butyl-5-(4-(2,3-difluorobenzyl)piperazine-1-carbonyl)-1-(2,6-dimethoxyphenyl)-6-hydroxypyrimidin-4(1H)-one], 0.01 to 10 nM.
